Reference: patent US20250221966A1, “RXFP1 AGONISTS” (BRISTOL-MYERS SQUIBB COMPANY, priority 2021, published 2025)

What follows are compounds tested against T1, human RXFP1 (Homo sapiens, UniProt Q9HBX9) (assay: RXFP1 cAMP assay (hRXFP1 HEK293 cAMP assay, HTRF)). Conditions: HEK293 cells stably expressing human RXFP1, 30 min at room temperature, read-out: cAMP hRXFP1 HEK293 Assay EC50.
T1 construct: expressed in transfected cells
T1 sequence (Q9HBX9 1-757): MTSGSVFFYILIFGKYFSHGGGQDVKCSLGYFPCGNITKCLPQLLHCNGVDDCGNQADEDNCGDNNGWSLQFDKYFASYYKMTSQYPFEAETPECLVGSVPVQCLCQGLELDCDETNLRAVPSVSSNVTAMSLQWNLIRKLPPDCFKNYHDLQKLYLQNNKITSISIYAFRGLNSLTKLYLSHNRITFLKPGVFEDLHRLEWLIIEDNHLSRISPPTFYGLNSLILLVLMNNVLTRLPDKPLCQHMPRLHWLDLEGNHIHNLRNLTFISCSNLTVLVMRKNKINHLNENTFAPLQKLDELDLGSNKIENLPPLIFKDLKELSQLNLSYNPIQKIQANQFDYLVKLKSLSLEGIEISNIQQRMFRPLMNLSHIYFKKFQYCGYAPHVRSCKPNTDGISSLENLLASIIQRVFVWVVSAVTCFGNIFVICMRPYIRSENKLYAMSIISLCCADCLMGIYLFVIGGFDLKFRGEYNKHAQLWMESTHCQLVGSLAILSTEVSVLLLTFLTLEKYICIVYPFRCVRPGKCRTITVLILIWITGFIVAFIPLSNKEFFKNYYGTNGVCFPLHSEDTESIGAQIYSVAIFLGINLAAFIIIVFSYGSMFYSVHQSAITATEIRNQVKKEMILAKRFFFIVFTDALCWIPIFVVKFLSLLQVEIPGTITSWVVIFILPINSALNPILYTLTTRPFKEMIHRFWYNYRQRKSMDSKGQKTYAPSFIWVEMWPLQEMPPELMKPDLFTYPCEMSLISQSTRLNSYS
Assay type: cell-based
Method in brief: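 In a stable human RXFP1 HEK293 line, compounds acted for 30 min at RT in buffer with 0.5 mM IBMX. HTRF then quantified cellular cAMP.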

SMILES | EC50
O=C(N[C@H]1[C@@H](C(=O)Nc2ccc(F)c(C(F)(F)F)c2)[C@H]2CC[C@@H]1/C2=C\C1CC1)c1cc(C2=NOC3COCC23)ccc1OCCCF (stereo partly shown) [compound 786] | 4 nM
COc1ccc(-c2ccc(C(=O)O)cc2F)cc1C(=O)N[C@@H]1C2CCC(/C2=C/C(F)(F)F)[C@@H]1C(=O)Nc1ccc(F)c(C(F)(F)F)c1 (stereo partly shown) [compound 293] | 32 nM
COc1ccc(C2=NOC3COCC23)cc1C(=O)N[C@H]1[C@@H](C(=O)NC(C2CC2)C2CC2)[C@H]2CC[C@@H]1/C2=C\C1CC1 (stereo partly shown) [compound 521] | 19.5 nM
COc1ccc(C2=NOC(C(C)O)C2)cc1C(=O)N[C@H]1[C@@H](C(=O)Nc2ccc(F)c(C(F)(F)F)c2)[C@H]2CC[C@@H]1/C2=C\C1CC1 (single isomer, unassigned) [compound 598] | 102 nM
COc1ccc(C2=NOC3CC(O)CC23)cc1C(=O)N[C@H]1[C@@H](C(=O)Nc2ccc(F)c(C(F)(F)F)c2)[C@H]2CC[C@@H]1/C2=C\C1CCC1 (mixture of isomers) [Example 406, (1R,2S,3R,4R,Z)-7-(cyclobutylmethylene)-N-(4-fluoro-3-(trifluoromethyl)phenyl)-3-(5-(5-hydroxy-3a,5,6,6a-tetrahydro-4H-cyclopenta[d]isoxazol-3-yl)-2-methoxybenzamido)bicyclo[2.2.1]heptane-2-carboxamide] | 48 nM
COc1ccc(Br)cc1C(=O)NC1C2CCC(C2=C(C)C)C1C(=O)Nc1ccc(F)c(C(F)(F)F)c1 (stereo not shown) [Example 76] | 400 nM
COc1ccc(-c2cc(C3=NOC(C(=O)O)C3)ccc2F)cc1C(=O)N[C@H]1[C@@H](C(=O)Nc2ccc(F)c(C(F)(F)F)c2)[C@H]2CC[C@@H]1/C2=C\C1CCCC1 (stereo partly shown) [compound 945] | 5.4 nM
COc1ccc(-c2ccc(C(=O)O)cc2)cc1C(=O)N[C@H]1[C@@H](C(=O)Nc2ccc(F)c(C(F)(F)F)c2)[C@H]2CC[C@@H]1/C2=C/c1ccccc1 [compound 94] | 400 nM
CNC(=O)OC(C(=O)NC)c1ccc(F)c(-c2ccc(OC)c(C(=O)N[C@@H]3C4CCC(/C4=C/C4CC4)[C@@H]3C(=O)Nc3ccc(F)c(C(F)(F)F)c3)c2)c1 (stereo partly shown) [compound 235] | 1 nM
COc1ccc(-c2cc(C(OC(=O)NC3CCC3)C(F)(F)F)ccc2F)cc1C(=O)N[C@@H]1C2CCC(/C2=C/C2CC2)[C@@H]1C(=O)Nc1ccc(F)c(C(F)(F)F)c1 (stereo partly shown) [compound 211] | 1 nM
COc1ccc(C2=NO[C@@H]3CC[C@H](O)[C@H]23)cc1C(=O)N[C@H]1[C@@H](C(=O)Nc2ccc(F)c(C(F)(F)F)c2)[C@H]2CC[C@@H]1/C2=C\C1CC1 (single isomer, unassigned) [compound 484] | 7.4 nM
COc1ccc(-c2cccc(C3=NOC4CC(O)CC34)c2)cc1C(=O)N[C@H]1[C@@H](C(=O)Nc2ccc(F)c(C(F)(F)F)c2)[C@H]2CC[C@@H]1/C2=C\C1CC1 (stereo partly shown) [compound 901] | 4.5 nM
O=C(N[C@H]1[C@@H](C(=O)Nc2ccc(F)c(C(F)(F)F)c2)[C@H]2CC[C@@H]1/C2=C\C1CC1)c1cc(C2=NOC3COCC23)ccc1OCCC(F)(F)F (stereo partly shown) [compound 780] | 1.8 nM
CC[C@H](NC(=O)[C@@H]1[C@H](NC(=O)c2cc(C3=NOC4COCC34)ccc2OC)[C@@H]2CC[C@H]1/C2=C/C1CC1)C1CCC1 (stereo partly shown) [compound 676] | 486 nM
COc1ccc(-c2cc(C(COC(=O)NC3CCC3)C(F)(F)F)ccc2F)cc1C(=O)N[C@H]1[C@@H](C(=O)Nc2ccc(F)c(C(F)(F)F)c2)[C@H]2CC[C@@H]1/C2=C\C1CCCC1 (stereo partly shown) [compound 894] | 1.3 nM
COc1ccc(C2=NOC(C)(CO)C2)cc1C(=O)N[C@H]1[C@@H](C(=O)Nc2ccc(F)c(C(F)(F)F)c2)[C@H]2CC[C@@H]1C2=CC1CC1 (single isomer, unassigned) [compound 480] | 6.7 nM
COc1ccc(-c2cc(C(OC(=O)NC(C)(C)C)C(F)(F)F)ccc2F)cc1C(=O)N[C@@H]1C2CCC(/C2=C/C2CC2)[C@@H]1C(=O)Nc1ccc(F)c(C(F)(F)F)c1 (stereo partly shown) [compound 210] | 1 nM
COc1ccc(-c2cc(-c3nnn[nH]3)ccc2F)cc1C(=O)N[C@@H]1C2CCC(C2=C(C)C)[C@@H]1C(=O)Nc1ccc(F)c(C(F)(F)F)c1 (stereo partly shown) [Example 108] | 330 nM
CCCCC1[C@H]2CC[C@@H]1[C@H](C(=O)Nc1ccc(F)c(C(F)(F)F)c1)[C@@H]2NC(=O)c1cc(C2=NOC3CC(CO)CC23)ccc1OC (stereo partly shown) [Example 467] | 4 nM
COc1c(F)cc(C2=NOC3CC(CO)CC23)cc1C(=O)N[C@H]1[C@@H](C(=O)N[C@H](C)C2(C)CC2)[C@H]2CC[C@@H]1/C2=C\CCC(F)(F)F (stereo partly shown) [compound 834] | 3.8 nM

SMILES | EC50
COc1ccc(-c2cc(C(=O)O)ccc2F)cc1C(=O)N[C@@H]1C2CCC(/C2=C/C2CC2)[C@@H]1C(=O)NCc1ccccc1 (stereo partly shown) [compound 260] | 2970 nM
O=C(N[C@H]1[C@@H](C(=O)Nc2ccc(F)c(C(F)(F)F)c2)[C@H]2CC[C@@H]1/C2=C\C1CC1)c1cc(C2=NOC3CC(CO)CC23)ccc1F (single isomer, unassigned) [compound 717] | 2320 nM
COc1ccc(-c2cc([C@H](OC(=O)NC3CCC3)C(F)(F)F)ccc2F)cc1C(=O)N[C@H]1[C@@H](C(=O)Nc2ccc(F)c(C(F)(F)F)c2)[C@H]2CC[C@@H]1/C2=C\C[C@@H](O)C(F)(F)F [compound 932] | 3.9 nM
COc1ccc(C2=NOC(CO)C2CO)cc1C(=O)N[C@H]1[C@@H](C(=O)Nc2ccc(F)c(C(F)(F)F)c2)[C@H]2CC[C@@H]1/C2=C\C1CC1 (single isomer, unassigned) [compound 481] | 6.7 nM
COc1ccc(-c2nc(C(=O)O)co2)cc1C(=O)N[C@@H]1C2CCC(C2=C(C)C)[C@@H]1C(=O)Nc1ccc(F)c(C(F)(F)F)c1 (stereo partly shown) [Example 113] | 1800 nM
COc1ccc(-c2cc(C(=O)O)ccc2F)cc1C(=O)N[C@@H]1C2CCC(/C2=C/C2CC2)[C@@H]1C(=O)NCc1ccccc1OC(F)(F)F (stereo partly shown) [compound 306] | 540 nM
COc1ccc(-c2cc(C(=O)O)ccc2F)cc1C(=O)NC1C2CCC(/C2=C/c2cn(C[Si](C)(C)C)nn2)[C@@H]1C(=O)Nc1ccc(F)c(C(F)(F)F)c1 (stereo partly shown) [Example 325] | 4830 nM
COc1ccc(C2=NO[C@H]3C[C@H](CO)C[C@@H]23)cc1C(=O)N[C@H]1[C@@H](C(=O)Nc2ccc(F)c(C(F)(F)F)c2)[C@H]2CC[C@@H]1/C2=C\CC(O)C(F)(F)F (stereo partly shown) [compound 820] | 2.4 nM
CNC(=O)OC(C(=O)NOC)c1ccc(F)c(-c2ccc(OC)c(C(=O)N[C@@H]3C4CCC(/C4=C/C4CC4)[C@@H]3C(=O)Nc3ccc(F)c(C(F)(F)F)c3)c2)c1 (stereo partly shown) [compound 234] | 1 nM
COc1ccc(C2=NOC3COCC23)cc1C(=O)N[C@H]1[C@@H](C(=O)NCC2(c3ccccc3)CC2)[C@H]2CC[C@@H]1/C2=C\C1CC1 (stereo partly shown) [compound 572] | 66.4 nM
COc1ccc(C2=NO[C@H]3CC(CO)C[C@@H]23)cc1C(=O)N[C@H]1[C@@H](C(=O)Nc2ccc(F)c(C(F)(F)F)c2)[C@H]2CC[C@@H]1/C2=C\CC(C)(C)C (stereo partly shown) [compound 841] | 4.7 nM
O=C(O)c1ccc(F)c(-c2ccc(OCCO)c(C(=O)N[C@@H]3C4CCC(/C4=C/C(F)(F)F)[C@@H]3C(=O)Nc3ccc(F)c(C(F)(F)F)c3)c2)c1 (stereo partly shown) [compound 321] | 91 nM
COc1ccc(C2=NOC3COCC23)cc1C(=O)N[C@H]1[C@@H](C(=O)NCC2(C)CC2)[C@H]2CC[C@@H]1/C2=C\C1CC1 (stereo partly shown) [compound 522] | 21.1 nM
CCC/C=C1\[C@H]2CC[C@@H]1[C@H](C(=O)Nc1ccc(F)c(C(F)(F)F)c1)[C@@H]2NC(=O)c1cc(C2=NOC3CC(CO)CC23)cc(F)c1OC (stereo partly shown) [compound 793] | 2.2 nM
COc1ccc(C2=NOC3CC(CO)CC23)cc1C(=O)N[C@@H]1C2CCC(/C2=C/C2CC2)[C@@H]1C(=O)Nc1ccc(F)c(OC(F)(F)F)c1 (stereo partly shown) [compound 972] | 1.9 nM
COc1ccc(-c2ccc(C(CC(=O)O)C(F)(F)F)cc2F)cc1C(=O)N[C@H]1[C@@H](C(=O)Nc2ccc(F)c(C(F)(F)F)c2)[C@H]2CC[C@@H]1/C2=C\C1CC1 (stereo partly shown) [compound 883] | 2.5 nM
COc1ccc(C2=NO[C@H]3C[C@H](CO)CN23)cc1C(=O)N[C@H]1[C@@H](C(=O)Nc2ccc(F)c(C(F)(F)F)c2)[C@H]2CC[C@@H]1/C2=C\C1CCCC1 [compound 816] | 1.6 nM
COc1c(F)cc(C2=NOC3CC(O)(C(F)(F)F)CC23)cc1C(=O)N[C@H]1[C@@H](C(=O)Nc2ccc(F)c(C(F)(F)F)c2)[C@H]2CC[C@@H]1/C2=C\C1CC(F)(F)C1 (stereo partly shown) [compound 914] | 7.8 nM
COc1ccc(-c2cc(C(=O)O)ccc2F)cc1C(=O)N[C@@H]1C2CCC(/C2=C/C2CC2)[C@@H]1C(=O)NC(C)C (stereo partly shown) [compound 300] | 575 nM

Same assay, conditions: cAMP hRXFP1 HEK293 Assay EC50, HEK293 cells stably expressing human RXFP1, 30 min at room temperature

SMILES | EC50
COc1ccc(-c2cc(C(=O)O)ccc2F)cc1C(=O)N[C@H]1[C@@H](C(=O)Nc2ccc(F)c(C(F)(F)F)c2)[C@H]2CC[C@@H]1/C2=C\c1ccccc1 [compound 80] | 11 nM
